Here are results for 25 compounds from US10246456B2, “IRAK4 inhibiting agents” (BIOGEN MA INC., priority 2014, dated 2019).

The target in the assay is IRAK4 (Homo sapiens (Human), UniProt Q9NWZ3). The assay can be described thus: IRAK-4 AlphaScreen biochemical kinase assay. Conditions: 1 nM IRAK4, 1 mM ATP, 3.5 h at RT. The procedure, abridged: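 AlphaScreen read-out: streptavidin beads bind the biotinylated peptide and protein A beads bind the anti-phosphothreonine antibody, so energy transfer reports phosphorylation of the peptide. The kinase is human IRAK-4.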
Sequence of IRAK4 (Q9NWZ3 whole entry, species assumed): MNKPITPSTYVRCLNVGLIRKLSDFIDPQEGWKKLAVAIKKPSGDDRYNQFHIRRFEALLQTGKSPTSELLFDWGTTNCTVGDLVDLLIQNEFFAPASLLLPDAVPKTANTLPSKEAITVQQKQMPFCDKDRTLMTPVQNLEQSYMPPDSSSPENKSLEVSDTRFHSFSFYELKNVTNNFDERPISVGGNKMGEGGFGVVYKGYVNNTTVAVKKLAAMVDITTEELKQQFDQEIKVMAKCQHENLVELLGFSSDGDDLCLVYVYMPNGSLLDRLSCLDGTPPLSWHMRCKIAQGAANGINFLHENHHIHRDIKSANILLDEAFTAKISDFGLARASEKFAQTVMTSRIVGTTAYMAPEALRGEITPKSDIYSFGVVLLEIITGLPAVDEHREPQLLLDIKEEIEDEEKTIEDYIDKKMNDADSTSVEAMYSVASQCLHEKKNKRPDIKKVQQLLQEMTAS

Bounds are passed on as bounds.

In the case of `OCc1cccc(-n2ncc3ccc(-c4cccc(C5CCCN5)n4)cc32)n1` (stereo not shown) [Example 571, (6-(6-(6-(pyrrolidin-2-yl)pyridin-2-yl)-1H-indazol-1-yl)pyridin-2-yl)methanol], the IC50 was 100 to 1000 nM.

`CCC[C@H](N)c1cccc(-c2cc(OC)c3cnn(-c4nccc(C(F)F)n4)c3c2)n1` [Example 572, (S)-1-(6-(1-(4-(difluoromethyl)pyrimidin-2-yl)-4-methoxy-1H-indazol-6-yl)pyridin-2-yl)butan-1-amine] yielded an IC50 of under 100 nM.

As for `CCC[C@H](N)c1cccc(-c2cc([C@@H]3CCCN3)c3cnn(-c4cccc(CO)n4)c3c2)n1` [Example 573, (6-(6-(6-((S)-1-aminobutyl)pyridin-2-yl)-4-((S)-pyrrolidin-2-yl)-1H-indazol-1-yl)pyridin-2-yl)methanol], the IC50 was under 100 nM.

Turning to `CCC[C@H](N)c1ccnc(-c2cc(OC)c3cnn(-c4cccc(CO)n4)c3c2)n1` [Example 574, (S)-(6-(6-(4-(1-aminobutyl)pyrimidin-2-yl)-4-methoxy-1H-indazol-1-yl)pyridin-2-yl)methanol], the IC50 was under 100 nM. Turning to `COCCC[C@H](N)c1cccc(-c2cc(-c3ccn(C)n3)c3cnn(-c4cccc(CO)n4)c3c2)n1` [Example 575, (S)-(6-(6-(6-(1-amino-4-methoxybutyl)pyridin-2-yl)-4-(1-methyl-1H-pyrazol-3-yl)-1H-indazol-1-yl)pyridin-2-yl)methanol], the IC50 is under 100 nM. Turning to `CCC[C@@H](N)c1ccnc(-c2cc(OC)c3cnn(-c4cccc(CO)n4)c3c2)n1` [Example 576, (R)-(6-(6-(4-(1-aminobutyl)pyrimidin-2-yl)-4-methoxy-1H-indazol-1-yl)pyridin-2-yl)methanol], the IC50 was under 100 nM. The compound `Cc1cnc(-c2cc(-c3cccc([C@H](C)N)n3)cc3c2cnn3-c2cccc(CO)n2)o1` [Example 577, (S)-(6-(6-(6-(1-aminoethyl)pyridin-2-yl)-4-(5-methyloxazol-2-yl)-1H-indazol-1-yl)pyridin-2-yl)methanol] registered an IC50 of under 100 nM. As to `CCC[C@H](N)c1cccc(-c2cc(-n3ccnn3)c3cnn(-c4cccc(CO)n4)c3c2)n1` [Example 578, (S)-(6-(6-(6-(1-aminobutyl)pyridin-2-yl)-4-(1H-1,2,3-triazol-1-yl)-1H-indazol-1-yl)pyridin-2-yl)methanol], the IC50 is under 100 nM.

In turn, `CCC[C@H](N)c1cccc(-c2cc(COC(F)(F)F)c3cnn(-c4cccc(CO)n4)c3c2)n1` [Example 579, (S)-(6-(6-(6-(1-aminobutyl)pyridin-2-yl)-4-((trifluoromethoxy)methyl)-1H-indazol-1-yl)pyridin-2-yl)methanol] yielded an IC50 of under 100 nM. Next, `CCCC[C@H](N)c1ccnc(-c2ccc3cnn(-c4cccc(CO)n4)c3c2)n1` [Example 580, (S)-(6-(6-(4-(1-aminopentyl)pyrimidin-2-yl)-1H-indazol-1-yl)pyridin-2-yl)methanol]: under 100 nM; `N#CC[C@@H](N)c1cccc(-c2ccc3cnn(-c4cccc(CO)n4)c3c2)n1` [Example 581, (R)-3-amino-3-(6-(1-(6-(hydroxymethyl)pyridin-2-yl)-1H-indazol-6-yl)pyridin-2-yl)propanenitrile]: 100 to 1000 nM.

With `CCC[C@H](N)c1cccc(-c2cc(-c3ncc(C)o3)c3cnn(-c4cccc(CO)n4)c3c2)n1` [Example 582, (S)-(6-(6-(6-(1-aminobutyl)pyridin-2-yl)-4-(5-methyloxazol-2-yl)-1H-indazol-1-yl)pyridin-2-yl)methanol], the IC50 is under 100 nM.

Regarding `CCC[C@H](N)c1ccnc(-c2cc(OCC)c3cnn(-c4cccc(CO)n4)c3c2)n1` [Example 583, (S)-(6-(6-(4-(1-aminobutyl)pyrimidin-2-yl)-4-ethoxy-1H-indazol-1-yl)pyridin-2-yl)methanol], the IC50 is under 100 nM. The compound `CCC[C@@H](N)c1ccnc(-c2cc(OCC)c3cnn(-c4cccc(CO)n4)c3c2)n1` [Example 584, (R)-(6-(6-(4-(1-aminobutyl)pyrimidin-2-yl)-4-ethoxy-1H-indazol-1-yl)pyridin-2-yl)methanol] showed an IC50 of under 100 nM. The result for `CCC[C@H](N)c1cccc(-c2cc(C(CO)CCl)c3cnn(-c4cccc(CO)n4)c3c2)n1` (stereo partly drawn) [Example 585, 2-(6-(6-((S)-1-aminobutyl)pyridin-2-yl)-1-(6-(hydroxymethyl)pyridin-2-yl)-1H-indazol-4-yl)-3-chloropropan-1-ol] reads 100 to 1000 nM.

`COCCOc1cc(-c2cccc([C@H](C)N)n2)cc2c1cnn2-c1cccc(CO)n1` [Example 586, (S)-(6-(6-(6-(1-aminoethyl)pyridin-2-yl)-4-(2-methoxyethoxy)-1H-indazol-1-yl)pyridin-2-yl)methanol] registered an IC50 of under 100 nM. Next, `CC[C@H](N)c1cccc(-c2cc(OCCOC)c3cnn(-c4cccc(CO)n4)c3c2)n1` [Example 587, (S)-(6-(6-(6-(1-aminopropyl)pyridin-2-yl)-4-(2-methoxyethoxy)-1H-indazol-1-yl)pyridin-2-yl)methanol]: under 100 nM; `COCCOc1cc(-c2cccc([C@@H](N)C3CC3)n2)cc2c1cnn2-c1cccc(CO)n1` [Example 588, (S)-(6-(6-(6-(amino(cyclopropyl)methyl)pyridin-2-yl)-4-(2-methoxyethoxy)-1H-indazol-1-yl)pyridin-2-yl)methanol]: under 100 nM. Next, `N[C@@H](CF)c1cccc(-c2ccc3cnn(-c4cccc(CO)n4)c3c2)n1` [Example 589, (R)-(6-(6-(6-(1-amino-2-fluoroethyl)pyridin-2-yl)-1H-indazol-1-yl)pyridin-2-yl)methanol]: under 100 nM; `CCC[C@H](N)c1cccc(-c2ccc3cnn(-c4cncc(C)n4)c3c2)n1` [Example 590, (S)-1-(6-(1-(6-methylpyrazin-2-yl)-1H-indazol-6-yl)pyridin-2-yl)butan-1-amine]: under 100 nM.

Regarding `N#CC[C@H](N)c1cccc(-c2ccc3cnn(-c4cccc(CO)n4)c3c2)n1` [Example 591, (S)-3-amino-3-(6-(1-(6-(hydroxymethyl)pyridin-2-yl)-1H-indazol-6-yl)pyridin-2-yl)propanenitrile], the IC50 was under 100 nM.

Regarding `N#CCC[C@H](N)c1cccc(-c2ccc3cnn(-c4cccc(CO)n4)c3c2)n1` [Example 592, (S)-4-amino-4-(6-(1-(6-(hydroxymethyl)pyridin-2-yl)-1H-indazol-6-yl)pyridin-2-yl)butanenitrile], the IC50 is under 100 nM.

`COCCOc1cc(-c2cccc([C@@H](N)CF)n2)cc2c1cnn2-c1cccc(CO)n1` [Example 594, (R)-(6-(6-(6-(1-amino-2-fluoroethyl)pyridin-2-yl)-4-(2-methoxyethoxy)-1H-indazol-1-yl)pyridin-2-yl)methanol]: the IC50 was under 100 nM. Next, `CCC[C@H](N)c1ccnc(-c2cc(OCCOC)c3cnn(-c4cccc(CO)n4)c3c2)n1` [Example 595, (S)-(6-(6-(4-(1-aminobutyl)pyrimidin-2-yl)-4-(2-methoxyethoxy)-1H-indazol-1-yl)pyridin-2-yl)methanol]: under 100 nM; `CCC[C@@H](N)c1ccnc(-c2cc(OCCOC)c3cnn(-c4cccc(CO)n4)c3c2)n1` [Example 596, (R)-(6-(6-(4-(1-aminobutyl)pyrimidin-2-yl)-4-(2-methoxyethoxy)-1H-indazol-1-yl)pyridin-2-yl)methanol]: under 100 nM.
